Structures can show the parent of a compound that is named as a salt.
Key:
[1] = system: A549 human lung cancer cells; test: A549 human lung cancer xenograft mouse model; assay type: in vivo; details: for tumor growth during treatment: eight treatments
Experimental: The anti-tumor activity of β-lapachone is examined using a human lung cancer xenograft model. Briefly, athymic female nude mice (Ncr) are inoculated subcutaneously with 4×10^6 A549 human lung cancer cells, and the tumors are allowed to grow to approximately 50 mm^3 in size. The animals are randomized into five groups of seven animals per group, and treated intraperitoneally every three days with one of the following five regimens: β-lapachone at 40 mg/kg in 40% hydroxypropy-β-cyclodextran (“HPBCD”); β-lapachone at 60 mg/kg in 40% HPBCD; gemcitabine (GEMZAR®) at 120 mg/kg in PBS; β-lapachone (40 mg/kg)+gemcitabine (120 mg/kg); or vehicle control (40% HPBCD). The combination therapy group receives treatments with β-lapachone and gemcitabine at the indicated concentrations on the same day, every three days. Mice receive a total of eight treatments. Mean tumor volume is analyzed; data points in FIG. 2 represent the arithmetic mean+/−SEM of five tumors.

[2] = system: CEM T lymphoblastoid cells; details: cited from earlier work
[3] = system: Human pancreatic cancer Panc-1 cells; test: Panc-1 human pancreatic cancer xenograft mouse model; assay type: in vivo; details: post-treatment observation 19 days
Experimental: Human pancreatic cancer Panc-1 cells (2×10^6) are implanted subcutaneously into male athymic nude (Ncr) mice. Following establishment of tumor nodules (about 50 mm^3), the animals are randomized into four groups of five animals per group. The animals are treated intraperitoneally with one of four treatments: β-lapachone at 40 mg/kg in 40% hydroxypropy-β-cyclodextran; gemcitabine (Gemzar®) at 120 mg/kg (in PBS); β-lapachone (40 mg/kg)+gemcitabine (120 mg/kg); or vehicle control. The mice receive a total of ten treatments, administered every three days (on study day 5, 8, 11, 14, 17, 20, 31, 34, 37, and 40). The combination therapy group receives β-lapachone and gemcitabine on the same day in each treatment. Following treatment, the animals are observed for an additional 19 days. Tumors are measured throughout the treatment and post-treatment periods.

[4] = cited from earlier work
[5] = system: ovary, colon, and pancreatic cancer cells; details: through induction of caspase; cited from earlier work
[6] = system: human breast cancer cells; details: cited from earlier work
[7] = in vivo; cited from earlier work
[8] = system: human ovarian cancer, human prostate cancer, human breast cancer, human multiple myeloma; details: cited from earlier work

For Nc1ccn([C@@H]2O[C@H](CO)[C@@H](O)C2(F)F)c(=O)n1 [gemcitabine, 2′-deoxy-2′,2′-difluorocytidine monohydrochloride (β-isomer), reference compound], the “tumor growth during treatment” value ([1]; gemcitabine 120 mg/kg intraperitoneally every three days) is given as “retarded tumor growth”, the “internucleosomal DNA fragmentation” value [2] is given as “induces internucleosomal DNA fragmentation” and the “tumor re-growth after termination of treatment” value ([3]; gemcitabine 120 mg/kg) is given as 400%.

In the case of CC1(C)CCC2=C(O1)c1ccccc1C(=O)C2=O [β-lapachone, 3,4-dihydro-2,2-dimethyl-2H-naphtho[1,2-b]pyran-5,6-dione], the water solubility [4] is given as “non-water soluble”, the “type of cell death induced” value [5] is given as “apoptosis” and the “type of cell death induced” value [6] is given as “induces necrosis”. The “tumor growth during treatment” value ([1]; β-lapachone 60 mg/kg intraperitoneally every three days) was “retarded tumor growth”, the “retardation of tumor growth, 60 mg/kg compared with 40 mg/kg” value ([1]; β-lapachone 60 mg/kg versus 40 mg/kg) was “more effective at retarding tumor growth” and the tolerability [7] was “generally well-tolerated”. The “tumor re-growth after termination of treatment” value ([3]; β-lapachone 40 mg/kg) was “no significant re-growth” and the “anti-tumor effect as a single agent” value [8] was “decrease the number of tumors, reduce tumor size, or increase survival time”.

From patent publication US20050192247A1, “Method of treating cancers” (priority 2004, published 2005)
